Drawing on patent publication US20250241926A1, “HETEROCYCLIC COMPOUNDS FOR USE IN THE TREATMENT OF CANCER” (ARTIOS PHARMA LIMITED, priority 2021, published 2025), this text covers kinact/KI for 1 substance.

For this test, the target named is T1, Human Polθ polymerase domain (aa1820-2590) (Homo sapiens, UniProt O75417).
T1 construct: Human Polθ polymerase domain (aa1820-2590) was expressed in E. Coli; made in house; host or cells: E. coli
T1 sequence (O75417 1820-2590): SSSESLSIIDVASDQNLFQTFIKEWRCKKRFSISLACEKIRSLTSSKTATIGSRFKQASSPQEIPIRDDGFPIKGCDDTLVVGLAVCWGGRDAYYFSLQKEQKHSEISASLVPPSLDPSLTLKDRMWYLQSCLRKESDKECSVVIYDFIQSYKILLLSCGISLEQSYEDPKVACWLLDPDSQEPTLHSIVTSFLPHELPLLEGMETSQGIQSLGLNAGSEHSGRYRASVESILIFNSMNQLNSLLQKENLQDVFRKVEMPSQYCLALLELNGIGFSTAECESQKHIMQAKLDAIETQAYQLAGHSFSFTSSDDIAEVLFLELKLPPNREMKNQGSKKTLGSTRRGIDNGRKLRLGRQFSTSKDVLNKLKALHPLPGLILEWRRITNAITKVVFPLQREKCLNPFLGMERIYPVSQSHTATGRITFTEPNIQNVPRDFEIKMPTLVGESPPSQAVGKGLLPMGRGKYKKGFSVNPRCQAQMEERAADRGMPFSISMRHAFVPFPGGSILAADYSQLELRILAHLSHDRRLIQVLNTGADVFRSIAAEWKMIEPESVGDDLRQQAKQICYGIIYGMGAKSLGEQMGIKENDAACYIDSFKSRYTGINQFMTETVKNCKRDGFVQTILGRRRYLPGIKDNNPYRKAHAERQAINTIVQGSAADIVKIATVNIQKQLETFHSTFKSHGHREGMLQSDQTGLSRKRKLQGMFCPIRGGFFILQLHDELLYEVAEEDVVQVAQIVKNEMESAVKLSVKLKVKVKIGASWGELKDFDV
As to the kind of experiment: Polθ Polymerase Domain Kinact/Kl Assay (PicoGreen). In kind it is biochemical. Particulars: covalent inhibitors, kobs vs [I] fit, 0.8 nM Polθ, 100 nM DNA substrate. In a few lines: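 E. coli-expressed enzyme (0.8 nM final) was run with 100 nM annealed DNA substrate and dNTPs in Tris pH 7.5 buffer (1% DMSO), with EDTA stops across a time course up to 60 min. Synthesised DNA was read by PicoGreen fluorescence. kobs per inhibitor concentration was fitted from the time courses, and Kinact and KI came from the kobs-vs-[I] plot.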

What is called kinact/KI is the maximal inactivation rate divided by the concentration that gives half of it. In the case of “(S,E)-2-((6-(2-((2- (4-(Dimethyl- amino)but-2-eno- yl)-2-azaspiro[3.3] heptan-6-yl)-oxy)- ethyl)-7-fluoro-1- methyl-2-oxo- 1,2,3,4,5,6-hexa- hydrobenzo[b] [1,4]diazocin-3- yl)amino)-6-meth- yl-4-(trifluoro- methyl)nicotino- nitrile [Example 45]”, the kinact/KI was found to be 5.7e+06 M⁻¹ s⁻¹.
